According to patent publication US9532990B2 (Zhejiang DTRM Biopharma Co. Ltd., priority 2014, dated 2017):
Read-outs that look alike come from different tables or passages of the source.

Target: BTK wild type (Homo sapiens (Human), UniProt Q06187)
Assay: Inhibition assay of BTK kinase activity (HTRF)
Assay type: biochemical
Method: Inhibition Assay of BTK Kinase Activity:
The enzyme reaction mixture of BTK wild type standard HTRF assay contained 1 nM BTK wild type, 1 μM biotin-TK1 peptide, and 30 μM ATP in a buffer. The enzyme reaction were carried out at room temperature for 60 minutes. […] The plates were incubated at room temperature for 60 minutes and then read in the Envision plate reader.

[1] = all compounds with IC50 of less 10 nM, read-out: IC50 (BTK)

BTK wild type, sequence (Q06187 whole entry): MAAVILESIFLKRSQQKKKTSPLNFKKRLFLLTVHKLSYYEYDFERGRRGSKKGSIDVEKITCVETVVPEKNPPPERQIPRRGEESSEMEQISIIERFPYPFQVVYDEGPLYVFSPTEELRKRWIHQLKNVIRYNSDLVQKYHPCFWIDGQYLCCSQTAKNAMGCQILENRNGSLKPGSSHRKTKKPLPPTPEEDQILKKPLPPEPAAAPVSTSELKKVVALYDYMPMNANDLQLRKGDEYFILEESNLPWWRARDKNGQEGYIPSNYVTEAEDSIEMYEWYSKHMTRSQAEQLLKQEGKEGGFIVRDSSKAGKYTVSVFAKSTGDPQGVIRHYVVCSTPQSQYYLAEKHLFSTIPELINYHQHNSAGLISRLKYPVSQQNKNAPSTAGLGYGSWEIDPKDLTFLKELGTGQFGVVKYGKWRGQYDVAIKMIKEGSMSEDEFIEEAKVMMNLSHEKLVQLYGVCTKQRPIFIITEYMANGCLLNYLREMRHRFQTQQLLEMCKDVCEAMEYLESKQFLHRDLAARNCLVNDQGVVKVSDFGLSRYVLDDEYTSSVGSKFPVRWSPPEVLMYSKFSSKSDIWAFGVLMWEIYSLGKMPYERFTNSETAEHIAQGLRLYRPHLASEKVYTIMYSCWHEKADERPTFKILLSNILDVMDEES

SMILES | IC50 (read-out: BTK IC50) [nM] | IC50 [1] [nM]
C=CC(=O)N1CCCC(n2nc(-c3ccc(C(=O)c4ccc(F)cc4)c(F)c3)c3c(N)ncnc32)C1 (stereo not shown) [Compound 1, 1-(3-(4-amino-3-(3-fluoro-4-(4-fluorobenzoyl)phenyl)-1H-pyrazolo[3,4-d]pyrimidin-1-yl)piperidin-1-yl)prop-2-en-1-one] | 66 | –
C=CC(=O)N1CCCC(n2nc(-c3ccc(C(=O)c4ccc(F)cc4)cc3F)c3c(N)ncnc32)C1 (stereo not shown) [Compound 2, 1-(3-(4-amino-3-(2-fluoro-4-(4-fluorobenzoyl)phenyl)-1H-pyrazolo[3,4-d]pyrimidin-1-yl)piperidin-1-yl)prop-2-en-1-one] | 5 | –
C=CC(=O)N1CCCC(n2nc(-c3ccc(C(=O)c4cccc(F)c4)c(F)c3)c3c(N)ncnc32)C1 (stereo not shown) [Compound 3, 1-(3-(4-amino-3-(3-fluoro-4-(3-fluorobenzoyl)phenyl)-1H-pyrazolo[3,4-d]pyrimidin-1-yl)piperidin-1-yl)prop-2-en-1-one] | 10 | –
C=CC(=O)N1CCCC(n2nc(-c3ccc(C(=O)c4ccccc4F)cc3F)c3c(N)ncnc32)C1 (stereo not shown) [Compound 4, 1-(3-(4-amino-3-(2-fluoro-4-(2-fluorobenzoyl)phenyl)-1H-pyrazolo[3,4-d]pyrimidin-1-yl)piperidin-1-yl)prop-2-en-1-one] | 2 | –
Cc1oncc1C(=O)N1CCCC(n2nc(-c3ccc(C(=O)c4cccc(F)c4)cc3F)c3c(N)ncnc32)C1 (stereo not shown) [Compound 6, (3-(4-amino-3-(2-fluoro-4-(3-fluorobenzoyl)phenyl)-1H-pyrazolo[3,4-d]pyrimidin-1-yl)piperidin-1-yl)(5-methylisoxazol-4-yl)methanone] | 138 | –
C/C(O)=C(/C#N)C(=O)N1CCCC(n2nc(-c3ccc(C(=O)c4cccc(F)c4)cc3F)c3c(N)ncnc32)C1 (stereo not shown) [Compound 7, (E)-2-(3-(4-amino-3-(2-fluoro-4-(3-fluorobenzoyl)phenyl)-1H-pyrazolo[3,4-d]pyrimidin-1-yl)piperidine-1-carbonyl)-3-hydroxybut-2-enenitrile] | 730 | –
C=CS(=O)(=O)N1CCCC(n2nc(-c3ccc(C(=O)c4cccc(F)c4)cc3F)c3c(N)ncnc32)C1 (stereo not shown) [Compound 8, (4-(4-amino-1-(1-(vinylsulfonyl)piperidin-3-yl)-1H-pyrazolo[3,4-d]pyrimidin-3-yl)-3-fluorophenyl)(3-fluorophenyl)methanone] | 2 | –
Nc1ncnc2c1c(-c1ccc(C(=O)c3cccc(F)c3)cc1F)nn2C1CCCN(C(=O)C2CO2)C1 (stereo not shown) [Compound 9, (3-(4-amino-3-(2-fluoro-4-(3-fluorobenzoyl)phenyl)-1H-pyrazolo[3,4-d]pyrimidin-1-yl)piperidin-1-yl)(oxiran-2-yl)methanone] | 83 | –
CC(C)(C)OC(=O)N1CCCC(n2nc(-c3ccc(Oc4ccccc4[N+](=O)[O-])cc3F)c3c(N)ncnc32)C1 (stereo not shown) [Compound 10, tert-butyl 3-(4-amino-3-(2-fluoro-4-(2-nitrophenoxy)phenyl)-1H-pyrazolo[3,4-d]pyrimidin-1-yl)piperidine-1-carboxylate] | 1970 | –
C=CC(=O)N1CCCC(n2nc(-c3ccc(Oc4c(F)c(F)cc(F)c4F)cc3F)c3c(N)ncnc32)C1 (stereo not shown) [Compound 11, 1-(3-(4-amino-3-(2-fluoro-4-(2,3,5,6-tetrafluorophenoxy)phenyl)-1H-pyrazolo[3,4-d]pyrimidin-1-yl)piperidin-1-yl)prop-2-en-1-one] | 0.8 | < 10
C=CC(=O)N1CCCC(n2nc(-c3ccc(Oc4cccc(F)c4[N+](=O)[O-])cc3F)c3c(N)ncnc32)C1 (stereo not shown) [Compound 12, 1-(3-(4-amino-3-(2-fluoro-4-(3-fluoro-2-nitrophenoxy)phenyl)-1H-pyrazolo[3,4-d]pyrimidin-1-yl)piperidin-1-yl)prop-2-en-1-one] | 2 | < 10
C=CC(=O)N[C@H]1CC[C@@H](n2nc(-c3ccc(Oc4cccc(F)c4)cc3F)c3c(N)ncnc32)CC1 [Compound 13, N-((1s,4s)-4-(4-amino-3-(2-fluoro-4-(3-fluorophenoxy)phenyl)-1H-pyrazolo[3,4-d]pyrimidin-1-yl)cyclohexyl)acrylamide] | 1 | < 10
C=CC(=O)N[C@H]1CC[C@H](n2nc(-c3ccc(Oc4cccc(F)c4)cc3F)c3c(N)ncnc32)CC1 [Compound 14, N-((1r,4r)-4-(4-amino-3-(2-fluoro-4-(3-fluorophenoxy)phenyl)-1H-pyrazolo[3,4-d]pyrimidin-1-yl)cyclohexyl)acrylamide] | 9 | –
C=CC(=O)N1CCC(n2nc(-c3ccc(Oc4cccc(F)c4)cc3F)c3c(N)ncnc32)C1 (stereo not shown) [Compound 15, 1-(3-(4-amino-3-(2-fluoro-4-(3-fluorophenoxy)phenyl)-1H-pyrazolo[3,4-d]pyrimidin-1-yl)pyrrolidin-1-yl)prop-2-en-1-one] | 3 | < 10
C=CC(=O)N[C@@H]1CC[C@@H](n2nc(-c3ccc(Oc4cccc(F)c4)cc3F)c3c(N)ncnc32)C1 [Compound 16, N-((1r,3r)-3-(4-amino-3-(2-fluoro-4-(3-fluorophenoxy)phenyl)-1H-pyrazolo[3,4-d]pyrimidin-1-yl)cyclopentyl)acrylamide] | 3 | < 10
C=CC(=O)N[C@H]1CC[C@@H](n2nc(-c3ccc(Oc4cccc(F)c4)cc3F)c3c(N)ncnc32)C1 [Compound 17, N-((1s,3r)-3-(4-amino-3-(2-fluoro-4-(3-fluorophenoxy)phenyl)-1H-pyrazolo[3,4-d]pyrimidin-1-yl)cyclopentyl)acrylamide] | 4 | < 10
C=CC(=O)N1CCCC(n2nc(-c3ccc(Oc4cccc(F)c4)cc3F)c3c(N)ncnc32)C1 (stereo not shown) [Compound 18, 1-(3-(4-amino-3-(2-fluoro-4-(3-fluorophenoxy)phenyl)-1H-pyrazolo[3,4-d]pyrimidin-1-yl)piperidin-1-yl)prop-2-en-1-one] | 3 | < 10
C=CC(=O)N1CCCC(n2nc(-c3ccc(Oc4ccccc4NS(C)(=O)=O)cc3F)c3c(N)ncnc32)C1 (stereo not shown) [Compound 19, N-(2-(4-(1-(1-acryloylpiperidin-3-yl)-4-amino-1H-pyrazolo[3,4-d]pyrimidin-3-yl)-3-fluorophenoxy)phenyl)methanesulfonamide] | 67 | –
C=CC(=O)N1CCCC(n2nc(-c3ccc(Oc4cccc(NS(C)(=O)=O)c4)cc3F)c3c(N)ncnc32)C1 (stereo not shown) [Compound 20, N-(3-(4-(1-(1-acryloylpiperidin-3-yl)-4-amino-1H-pyrazolo[3,4-d]pyrimidin-3-yl)-3-fluorophenoxy)phenyl)methanesulfonamide] | 4 | < 10
C=CC(=O)N1CCCC(n2nc(-c3ccc(Oc4c(F)ccc(F)c4F)cc3F)c3c(N)ncnc32)C1 (stereo not shown) [Compound 21, 1-(3-(4-amino-3-(2-fluoro-4-(2,3,6-trifluorophenoxy)phenyl)-1H-pyrazolo[3,4-d]pyrimidin-1-yl)piperidin-1-yl)prop-2-en-1-one] | 5 | < 10
C=CC(=O)N[C@H]1CC[C@@H](n2nc(-c3ccc(Oc4c(F)c(F)cc(F)c4F)cc3F)c3c(N)ncnc32)CC1 [Compound 22, N-((1s,4s)-4-(4-amino-3-(2-fluoro-4-(2,3,5,6-tetrafluorophenoxy)phenyl)-1H-pyrazolo[3,4-d]pyrimidin-1-yl)cyclohexyl)acrylamide] | 50 | –
C=CC(=O)N1CCC(n2nc3c4c(ncnc42)Nc2cc(Oc4c(F)c(F)cc(F)c4F)ccc2-3)C1 (stereo not shown) [Compound 24] | 1020 | –
